Consider twelve compounds from ChEMBL document CHEMBL5465560, “Selectivity Literature for EUbOPEN Chemogenomic Library” (2024).

For experiment [1], the target named is 5'-AMP-activated protein kinase catalytic subunit alpha-1 (Homo sapiens, UniProt Q13131). The experiment is described as follows: Selectivity interaction (Kinase panel (KiNativ target engagement assay in Jurkat cells)) EUB0001635a PRKAA1. The class given is cell-based. The settings on record: Selectivity number of off-targets 0.0, Selectivity number of targets 233.0, Source Knowledge https://www.sciencedirect.com/science/article/pii/S2451945619300674?via%3Dihub, at 1 µM.

For experiment [2], the target named is CDK4/Cyclin D3 (Homo sapiens) (UniProt P11802+P30281). The experiment is described as follows: (§1) Selectivity interaction (Ambit KINOMEscan and KiNATiv profiling in Jurkat cells) EUB0000090b CDK4. It is filed as cell-based. The settings on record: at 1 µM.
The target in experiment [3] is Cyclin-dependent kinase 4/cyclin D1 (Homo sapiens) (UniProt P11802+P24385). Described as §1. The class given is cell-based. As to conditions: at 1 µM.
For experiment [4], the target named is Citron Rho-interacting kinase (Homo sapiens) (UniProt O14578). Put plainly: Selectivity interaction (Ambit KINOMEscan and KiNATiv profiling in Jurkat cells) EUB0000090b CIT. It is filed as cell-based. As to conditions: at 1 µM.
Experiment [5] concerns the target Calcium/calmodulin-dependent protein kinase kinase 2 (Homo sapiens) (UniProt Q96RR4). As to conditions: at 10 µM.
Experiment [6] concerns the target T1, Tyrosine-protein kinase Mer (Homo sapiens) (UniProt Q12866).
T1 sequence (whole entry): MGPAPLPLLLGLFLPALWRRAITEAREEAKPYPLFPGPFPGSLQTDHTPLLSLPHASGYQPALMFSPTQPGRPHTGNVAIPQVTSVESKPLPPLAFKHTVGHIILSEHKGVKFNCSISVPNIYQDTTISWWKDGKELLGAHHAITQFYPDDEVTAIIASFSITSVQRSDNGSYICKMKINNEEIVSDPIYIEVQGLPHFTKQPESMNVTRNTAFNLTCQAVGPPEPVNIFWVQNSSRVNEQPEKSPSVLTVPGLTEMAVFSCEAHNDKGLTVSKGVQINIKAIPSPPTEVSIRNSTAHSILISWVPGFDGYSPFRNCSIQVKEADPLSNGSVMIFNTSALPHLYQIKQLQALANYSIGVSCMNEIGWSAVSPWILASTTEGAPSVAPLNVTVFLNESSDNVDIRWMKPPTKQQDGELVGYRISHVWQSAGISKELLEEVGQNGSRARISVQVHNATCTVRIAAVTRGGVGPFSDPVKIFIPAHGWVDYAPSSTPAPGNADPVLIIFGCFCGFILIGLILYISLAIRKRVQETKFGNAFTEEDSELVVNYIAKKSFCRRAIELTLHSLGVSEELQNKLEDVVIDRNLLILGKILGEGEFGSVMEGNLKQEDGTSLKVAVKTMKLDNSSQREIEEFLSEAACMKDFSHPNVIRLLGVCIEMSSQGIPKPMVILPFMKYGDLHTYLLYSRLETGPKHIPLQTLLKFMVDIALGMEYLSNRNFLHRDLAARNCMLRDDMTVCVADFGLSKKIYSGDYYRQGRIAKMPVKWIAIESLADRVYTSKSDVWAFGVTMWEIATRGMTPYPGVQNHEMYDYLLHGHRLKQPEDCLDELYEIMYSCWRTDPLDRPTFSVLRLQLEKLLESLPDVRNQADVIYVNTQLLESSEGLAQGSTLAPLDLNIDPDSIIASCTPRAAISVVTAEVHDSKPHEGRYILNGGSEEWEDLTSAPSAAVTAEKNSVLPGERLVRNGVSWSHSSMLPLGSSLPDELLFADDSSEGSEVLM
As to conditions: at 10 µM.

In experiment [7] the target is T2, Mitogen-activated protein kinase kinase kinase 7 (Homo sapiens) (UniProt O43318).
T2 sequence (whole entry): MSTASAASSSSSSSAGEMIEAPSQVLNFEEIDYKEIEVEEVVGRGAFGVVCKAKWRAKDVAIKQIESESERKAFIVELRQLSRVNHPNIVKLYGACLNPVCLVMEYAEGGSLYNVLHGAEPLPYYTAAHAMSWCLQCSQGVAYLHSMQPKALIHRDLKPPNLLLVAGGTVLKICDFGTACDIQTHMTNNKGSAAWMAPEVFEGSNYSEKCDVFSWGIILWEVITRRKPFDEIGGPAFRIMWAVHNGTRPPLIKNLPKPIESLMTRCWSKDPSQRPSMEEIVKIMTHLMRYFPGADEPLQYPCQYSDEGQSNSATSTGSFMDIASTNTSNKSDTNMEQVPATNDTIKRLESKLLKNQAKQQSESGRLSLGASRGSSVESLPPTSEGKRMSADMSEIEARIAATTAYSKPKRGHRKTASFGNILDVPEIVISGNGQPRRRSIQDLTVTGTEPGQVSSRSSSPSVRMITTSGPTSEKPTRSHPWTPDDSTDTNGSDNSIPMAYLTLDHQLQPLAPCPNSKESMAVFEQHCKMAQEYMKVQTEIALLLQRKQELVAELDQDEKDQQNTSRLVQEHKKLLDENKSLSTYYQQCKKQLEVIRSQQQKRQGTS
The experiment is described as follows: Selectivity interaction (KinomeScan (DiscoverX)) EUB0000666a MAP3K7. The settings on record: at 10 µM.

The target in experiment [8] is Mitogen-activated protein kinase 9 (Homo sapiens, UniProt P45984). The experiment is described as follows: Selectivity interaction (KinomeScan (DiscoverX)) EUB0000229b MAPK9. As to conditions: at 10 µM.
In experiment [9] the target is Serine/threonine-protein kinase 38-like (Homo sapiens) (UniProt Q9Y2H1). The experiment is described as follows: Selectivity interaction (KinomeScan (DiscoverX)) EUB0001619a STK38L. The settings on record: at 1 µM.
For experiment [10], the target named is Tyrosine-protein kinase CSK (Homo sapiens) (UniProt P41240). The experiment is described as follows: Selectivity interaction (ActivX KiNativ screen (ex vivo kinase selectivity in human PBMCs)) EUB0001619a CSK. As to conditions: PBMC, at 1 µM. The class given is cell-based.
Experiment [11] has as its target Wee1-like protein kinase (Homo sapiens) (UniProt P30291). The experiment is described as follows: Selectivity interaction (KinomeScan (DiscoverX)) EUB0001049a WEE1. As to conditions: at 1 µM.
Experiment [12] concerns the target Mitogen-activated protein kinase kinase kinase 1 (Homo sapiens, UniProt Q13233). Put plainly: Selectivity interaction (KinomeScan (DiscoverX)) EUB0000695a MAP3K1. The settings on record: at 100 nM.
For experiment [13], the target named is Ribosomal protein S6 kinase alpha-5 (Homo sapiens) (UniProt O75582). Put plainly: Selectivity interaction (ProQinase) EUB0000171b RPS6KA5.
Experiment [14] addresses Sigma non-opioid intracellular receptor 1 (Homo sapiens) (UniProt Q99720). The experiment is described as follows: Selectivity interaction (Eurofins CEREP Diversity Profile (receptors and ion channels)) EUB0000279b SIGMAR1. The settings on record: at 10 µM.
Another experiment has as its target Misshapen-like kinase 1 (Homo sapiens, UniProt Q8N4C8). The experiment is described as follows: Selectivity interaction (KinomeScan (DiscoverX)) EUB0000045b MINK1.
The test system of experiment [15] is Phosphatidylinositol 4,5-bisphosphate 3-kinase catalytic subunit alpha isoform (Homo sapiens), P42336 [E542K]. The settings on record: at 10 µM.

Molecules are shown by their SMILES.

Ribosomal protein S6 kinase alpha-5 (Homo sapiens), sequence (O75582 whole entry, looked up): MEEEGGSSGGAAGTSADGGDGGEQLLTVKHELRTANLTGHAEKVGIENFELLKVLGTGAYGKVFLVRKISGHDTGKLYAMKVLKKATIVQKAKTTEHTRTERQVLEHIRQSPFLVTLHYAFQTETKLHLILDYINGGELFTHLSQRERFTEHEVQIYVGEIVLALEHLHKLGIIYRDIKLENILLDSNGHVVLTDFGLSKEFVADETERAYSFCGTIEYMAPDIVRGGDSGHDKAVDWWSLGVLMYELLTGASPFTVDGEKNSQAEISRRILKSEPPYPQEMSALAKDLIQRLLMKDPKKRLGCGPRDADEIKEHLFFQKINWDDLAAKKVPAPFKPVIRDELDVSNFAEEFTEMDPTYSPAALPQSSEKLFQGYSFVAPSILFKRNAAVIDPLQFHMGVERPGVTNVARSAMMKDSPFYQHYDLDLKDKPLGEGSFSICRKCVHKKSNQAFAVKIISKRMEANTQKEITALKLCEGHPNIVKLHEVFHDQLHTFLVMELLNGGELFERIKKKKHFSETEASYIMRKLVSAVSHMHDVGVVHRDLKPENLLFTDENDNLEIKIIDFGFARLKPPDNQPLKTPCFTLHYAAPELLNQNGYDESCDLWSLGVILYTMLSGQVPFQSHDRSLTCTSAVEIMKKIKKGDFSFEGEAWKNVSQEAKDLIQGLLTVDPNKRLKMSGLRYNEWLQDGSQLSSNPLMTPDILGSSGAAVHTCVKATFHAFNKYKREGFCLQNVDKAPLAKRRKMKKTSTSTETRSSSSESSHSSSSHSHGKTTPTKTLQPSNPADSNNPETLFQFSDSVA
Misshapen-like kinase 1, sequence (Q8N4C8 whole entry, looked up, canonical isoform): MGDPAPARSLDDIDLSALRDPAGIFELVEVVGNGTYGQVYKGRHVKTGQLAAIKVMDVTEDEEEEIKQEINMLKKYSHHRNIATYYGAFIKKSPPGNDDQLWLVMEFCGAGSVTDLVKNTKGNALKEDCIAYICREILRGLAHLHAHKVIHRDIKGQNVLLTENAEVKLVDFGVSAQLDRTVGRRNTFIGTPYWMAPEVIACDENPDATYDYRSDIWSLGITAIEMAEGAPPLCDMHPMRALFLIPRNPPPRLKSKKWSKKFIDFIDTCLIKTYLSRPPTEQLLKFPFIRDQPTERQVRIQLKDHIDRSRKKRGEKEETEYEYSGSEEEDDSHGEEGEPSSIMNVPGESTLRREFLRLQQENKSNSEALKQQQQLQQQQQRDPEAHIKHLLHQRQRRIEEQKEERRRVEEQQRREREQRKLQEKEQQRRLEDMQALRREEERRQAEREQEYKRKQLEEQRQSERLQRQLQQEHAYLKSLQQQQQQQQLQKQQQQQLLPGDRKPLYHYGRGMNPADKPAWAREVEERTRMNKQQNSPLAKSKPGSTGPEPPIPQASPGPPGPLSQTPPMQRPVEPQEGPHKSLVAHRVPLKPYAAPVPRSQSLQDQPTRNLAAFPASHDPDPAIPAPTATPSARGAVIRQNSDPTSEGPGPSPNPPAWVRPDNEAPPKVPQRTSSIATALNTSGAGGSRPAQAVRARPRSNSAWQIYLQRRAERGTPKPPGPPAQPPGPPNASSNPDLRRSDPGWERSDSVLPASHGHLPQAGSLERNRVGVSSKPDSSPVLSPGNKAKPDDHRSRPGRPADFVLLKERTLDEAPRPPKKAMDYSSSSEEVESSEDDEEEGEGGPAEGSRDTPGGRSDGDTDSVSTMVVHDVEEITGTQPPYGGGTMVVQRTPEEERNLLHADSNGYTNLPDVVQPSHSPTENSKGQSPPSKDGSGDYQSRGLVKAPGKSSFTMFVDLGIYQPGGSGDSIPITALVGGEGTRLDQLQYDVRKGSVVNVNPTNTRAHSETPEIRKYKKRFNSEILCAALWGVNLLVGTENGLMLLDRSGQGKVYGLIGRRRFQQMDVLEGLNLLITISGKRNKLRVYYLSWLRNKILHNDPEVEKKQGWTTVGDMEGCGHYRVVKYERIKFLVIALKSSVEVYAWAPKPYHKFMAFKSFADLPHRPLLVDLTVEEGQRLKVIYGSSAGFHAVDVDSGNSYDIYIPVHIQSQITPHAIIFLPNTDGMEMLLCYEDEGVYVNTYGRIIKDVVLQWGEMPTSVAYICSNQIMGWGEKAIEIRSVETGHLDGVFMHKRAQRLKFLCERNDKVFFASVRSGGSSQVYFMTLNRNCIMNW
Mitogen-activated protein kinase 9, sequence (P45984 whole entry, looked up): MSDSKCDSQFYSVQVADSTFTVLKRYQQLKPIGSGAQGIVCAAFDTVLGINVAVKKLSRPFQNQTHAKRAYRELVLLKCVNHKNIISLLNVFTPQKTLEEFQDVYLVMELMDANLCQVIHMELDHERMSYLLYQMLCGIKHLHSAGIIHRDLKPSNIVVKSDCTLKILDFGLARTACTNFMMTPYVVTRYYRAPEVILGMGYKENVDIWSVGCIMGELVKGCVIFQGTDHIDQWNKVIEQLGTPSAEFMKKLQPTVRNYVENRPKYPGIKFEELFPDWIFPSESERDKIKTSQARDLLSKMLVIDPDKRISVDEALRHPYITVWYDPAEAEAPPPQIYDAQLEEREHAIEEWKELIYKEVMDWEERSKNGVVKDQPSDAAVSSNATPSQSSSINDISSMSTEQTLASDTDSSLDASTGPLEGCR
Sigma non-opioid intracellular receptor 1 (Homo sapiens), sequence (Q99720 whole entry): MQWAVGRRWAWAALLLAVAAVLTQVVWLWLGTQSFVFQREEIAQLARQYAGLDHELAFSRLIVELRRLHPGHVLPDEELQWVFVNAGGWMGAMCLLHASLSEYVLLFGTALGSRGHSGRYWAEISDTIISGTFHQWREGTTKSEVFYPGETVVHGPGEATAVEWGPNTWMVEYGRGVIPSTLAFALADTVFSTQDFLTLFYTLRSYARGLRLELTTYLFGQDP
Calcium/calmodulin-dependent protein kinase kinase 2 (Homo sapiens), sequence (Q96RR4 2-588 limits assumed): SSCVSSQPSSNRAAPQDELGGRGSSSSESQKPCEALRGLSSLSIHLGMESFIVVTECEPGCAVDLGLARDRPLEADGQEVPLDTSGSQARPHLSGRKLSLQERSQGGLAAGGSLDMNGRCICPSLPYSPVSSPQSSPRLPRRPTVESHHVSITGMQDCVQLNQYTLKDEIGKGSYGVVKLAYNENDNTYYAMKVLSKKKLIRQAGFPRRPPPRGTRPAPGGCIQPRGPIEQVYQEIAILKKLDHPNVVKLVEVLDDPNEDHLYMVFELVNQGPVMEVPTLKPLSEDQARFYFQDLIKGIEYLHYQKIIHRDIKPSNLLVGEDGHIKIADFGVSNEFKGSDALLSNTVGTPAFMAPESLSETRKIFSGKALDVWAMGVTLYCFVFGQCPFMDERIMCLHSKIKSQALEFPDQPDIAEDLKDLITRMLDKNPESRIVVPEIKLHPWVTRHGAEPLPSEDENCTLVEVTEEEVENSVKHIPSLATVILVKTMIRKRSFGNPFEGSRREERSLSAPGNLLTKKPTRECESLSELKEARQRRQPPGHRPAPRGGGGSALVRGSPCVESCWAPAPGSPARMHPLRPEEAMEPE
Wee1-like protein kinase (Homo sapiens), sequence (P30291 whole entry, looked up): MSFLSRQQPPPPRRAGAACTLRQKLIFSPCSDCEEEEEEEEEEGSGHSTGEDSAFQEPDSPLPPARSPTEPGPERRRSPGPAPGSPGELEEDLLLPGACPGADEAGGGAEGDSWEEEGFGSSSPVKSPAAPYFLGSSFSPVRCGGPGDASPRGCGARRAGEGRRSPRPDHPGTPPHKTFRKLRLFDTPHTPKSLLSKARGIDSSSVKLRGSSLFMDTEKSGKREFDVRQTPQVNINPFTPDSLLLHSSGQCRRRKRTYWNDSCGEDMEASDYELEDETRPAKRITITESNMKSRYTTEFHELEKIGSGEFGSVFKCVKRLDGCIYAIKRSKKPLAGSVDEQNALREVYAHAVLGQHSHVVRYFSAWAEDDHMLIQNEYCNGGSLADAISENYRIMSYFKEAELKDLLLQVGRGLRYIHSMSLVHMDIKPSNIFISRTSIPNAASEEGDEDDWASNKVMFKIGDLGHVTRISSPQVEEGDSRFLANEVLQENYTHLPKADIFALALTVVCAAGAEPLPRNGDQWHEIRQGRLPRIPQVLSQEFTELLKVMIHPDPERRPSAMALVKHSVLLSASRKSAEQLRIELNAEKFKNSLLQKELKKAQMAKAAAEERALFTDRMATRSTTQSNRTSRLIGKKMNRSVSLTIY
Serine/threonine-protein kinase 38-like (Homo sapiens), sequence (Q9Y2H1 2-464 limits assumed): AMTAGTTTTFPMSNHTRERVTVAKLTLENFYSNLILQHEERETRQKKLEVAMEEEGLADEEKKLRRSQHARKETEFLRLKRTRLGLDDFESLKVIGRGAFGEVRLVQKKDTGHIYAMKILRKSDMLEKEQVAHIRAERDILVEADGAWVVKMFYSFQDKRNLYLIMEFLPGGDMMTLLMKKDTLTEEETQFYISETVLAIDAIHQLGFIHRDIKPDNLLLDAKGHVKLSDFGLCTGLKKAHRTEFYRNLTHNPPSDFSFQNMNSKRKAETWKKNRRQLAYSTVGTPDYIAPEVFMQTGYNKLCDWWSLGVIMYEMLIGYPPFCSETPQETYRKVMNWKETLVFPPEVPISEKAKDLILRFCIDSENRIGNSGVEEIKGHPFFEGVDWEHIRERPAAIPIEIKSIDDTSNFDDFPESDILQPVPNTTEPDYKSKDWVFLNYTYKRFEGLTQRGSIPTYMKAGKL
Tyrosine-protein kinase CSK (Homo sapiens), sequence (P41240 2-450 limits assumed): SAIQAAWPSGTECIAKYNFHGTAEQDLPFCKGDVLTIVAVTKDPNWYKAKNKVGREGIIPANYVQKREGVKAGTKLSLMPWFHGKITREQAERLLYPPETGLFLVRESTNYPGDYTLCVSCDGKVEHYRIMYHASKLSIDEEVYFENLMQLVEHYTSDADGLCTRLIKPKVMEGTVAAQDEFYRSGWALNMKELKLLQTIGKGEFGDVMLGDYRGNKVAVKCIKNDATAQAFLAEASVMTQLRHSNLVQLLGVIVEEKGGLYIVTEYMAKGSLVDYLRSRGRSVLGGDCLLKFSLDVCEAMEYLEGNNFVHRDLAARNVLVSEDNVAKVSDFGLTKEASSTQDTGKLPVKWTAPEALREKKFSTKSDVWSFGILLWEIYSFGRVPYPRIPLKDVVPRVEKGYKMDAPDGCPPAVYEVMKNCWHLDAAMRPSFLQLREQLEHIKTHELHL

Regarding `C=CC(=O)Nc1ccc(C(=O)Nc2[nH]nc3c2CN(C(=O)N[C@H](CN(C)C)c2ccccc2)C3(C)C)cc1`, the % of engagement in [1] turned out to be 54.4%.

Consider `CN(C)C/C=C/C(=O)Nc1ccc(C(=O)N2CCCC(Nc3ncc(Cl)c(-c4c[nH]c5ccccc45)n3)C2)cc1` (stereo not drawn), for which the values for the % of control in [2], in experiment [3] and in [4] were 94%, 59% and 83%, respectively.

For the compound `Cc1cc([C@@H](C)Nc2ccccc2C(=O)O)c2nc(N3CCOCC3)cc(=O)n2c1` [AZD-6482], the % of control in experiment [5] and in experiment [6] was 100% each time.

`O=C(NOC[C@H](O)CO)c1ccc(F)c(F)c1Nc1ccc(I)cc1F`: in experiment [7], the % of control is 75%. For the compound `COc1cc(N(C)c2ccnc3ccc(C(F)(F)F)cc23)cc(OC)c1OC`, the % binding in experiment [8] was found to be 80%.

In turn, `N#Cc1cccc(-c2c[nH]c3ncnc(N4CCOCC4)c23)c1` yielded a % of control in experiment [9] of 100%. Moreover, the % of inhibition in experiment [10] was -2%. `COc1cc(Nc2nc(C)cc(-c3cnn4nc(OC)ccc34)n2)cc(C(F)(F)F)c1` displayed a % of control in [11] of 95%. `Cc1cc(F)c(C(=O)Nc2cccc(-c3nncn3C(C)C)n2)cc1-n1cnc(C2CC2)c1` returned a % of control in [12] of 100%. Take `C=CC(=O)Nc1cccc(C(=O)Nc2ccc(Nc3cc(-c4[nH]c(SC)nc4C)ccn3)cc2)c1`: the % of control in experiment [13] (at 1 µM) was 94%; in experiment [13] (at 5 µM), 87%. In the case of `CC(=O)c1cc(-c2ccccc2OCC2CC2)c2ncccn12`, the % of control in experiment [14] amounted to 98%.

For `C=CC(=O)Nc1cc(-n2c(=O)ccc3cnc4ccc(-c5ccc(NS(C)(=O)=O)cc5)cc4c32)ccc1C`, the % of control was 100% on Misshapen-like kinase 1 (at 1 µM) and 73% at Misshapen-like kinase 1 (at 10 µM).

Compound `COCC(=O)NC/C=C/c1ccc2ncnc(Nc3ccc(Oc4ccc(C)nc4)c(C)c3)c2c1` [CP-724714] came in with a % of control in [15] of 100%.
